Experimental data taken from EP3884941A1, “INFLAMMASOME INHIBITORS AND USE THEREOF” (CENTRO DE INVESTIGACION PRINCIPE FELIPE, priority 2020, dated 2021).

Biological target: T1, caspase-3 (Homo sapiens, UniProt P42574)
T1 sequence (P42574 29-277): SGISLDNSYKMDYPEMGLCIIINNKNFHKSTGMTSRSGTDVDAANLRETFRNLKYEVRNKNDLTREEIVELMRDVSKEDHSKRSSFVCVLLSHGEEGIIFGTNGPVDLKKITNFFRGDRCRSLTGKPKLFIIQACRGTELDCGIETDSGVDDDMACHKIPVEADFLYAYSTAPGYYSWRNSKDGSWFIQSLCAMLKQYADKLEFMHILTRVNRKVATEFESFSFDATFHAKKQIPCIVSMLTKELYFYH
Assay: Caspase-3 activation assay
Type: biochemical
Conditions: recombinant caspase-3; MM01 5 µM (Figure 2A)
Method: Compounds were incubated with caspase-3 (2 nM) in reaction buffer (100 mM NaCl, 50 mM Hepes pH 7.4, 10 mM DTT, 1 mM EDTA, 10% glycerol, 0.1% CHAPS) for 20 min at RT. Enzyme activity was spectrophotometrically monitored by adding Ac-DEVD-pNA (200 µM) substrate.

C=CCN1C(=O)/C(=C2/C(=O)Nc3ccccc32)SC1=S [MM01]
caspase-3 activity: do not act on
